Positions of bridges follow the written chain, without caps; N, C: chain ends. Non-standard residues stand in square brackets, D forms with d. Residues, ends and D or L forms follow the SMILES beside them. dNMeF = CN[C@H](Cc1ccccc1)C(=O)O
Key:
[1] = test system: Staphylococcus saprophyticus; assay: Antibacterial activity against Staphylococcus saprophyticus ATCC 49907 after 24 hrs; type: functional; conditions: ATCC 49907, 24 h
Enterococcus faecalis [2] = assay: Antibacterial activity against vancomycin-resistant Enterococcus faecalis ATCC 29212 after 24 hrs; type: functional; conditions: ATCC 29212, 24 h
Staphylococcus aureus [3] = assay: Antibacterial activity against methicillin-resistant Staphylococcus aureus isolate 42412 after 24 hrs; type: functional; conditions: isolate 42412, 24 h
[4] = test system: Bacillus subtilis (Bacillus subtilis); assay: Antibacterial activity against Bacillus subtilis ATCC 6633 after 24 hrs; conditions: ATCC 6633, 24 h
Staphylococcus aureus [5] = assay: Antibacterial activity against Staphylococcus aureus 4299 after 24 hrs; type: functional; conditions: Staphylococcus aureus, 4299, 24 h
Staphylococcus aureus [6] = assay: Antibacterial activity against methicillin-resistant Staphylococcus aureus ATCC 700699 after 24 hrs; type: functional; conditions: ATCC 700699, 24 h
[7] = test system: Staphylococcus epidermidis; assay: Antibacterial activity against Staphylococcus epidermidis 12228 after 24 hrs; type: functional; conditions: Staphylococcus epidermidis, 12228, 24 h
Bacillus cereus = assay: Antibacterial activity against Bacillus cereus ATCC 11788 after 24 hrs; type: functional; conditions: ATCC 11788, 24 h
Staphylococcus aureus [8] = assay: Antibacterial activity against methicillin-resistant Staphylococcus aureus isolate 21455 after 24 hrs; type: functional; conditions: isolate 21455, 24 h
Enterococcus faecalis [9] = assay: Antibacterial activity against vancomycin-resistant Enterococcus faecalis ATCC 700802 after 24 hrs; type: functional; conditions: ATCC 700802, 24 h
Staphylococcus aureus [10] = assay: Antibacterial activity against methicillin-resistant Staphylococcus aureus isolate 1003 after 24 hrs; type: functional; conditions: isolate 1003, 24 h
Enterococcus faecalis [11] = assay: Antibacterial activity against vancomycin-resistant Enterococcus faecalis isolate 1002 after 24 hrs; type: functional; conditions: isolate 1002, 24 h
[12] = test system: Staphylococcus saprophyticus; assay: Antibacterial activity against Staphylococcus saprophyticus ATCC 49453 after 24 hrs; type: functional; conditions: ATCC 49453, 24 h
Enterococcus faecalis [13] = assay: Antibacterial activity against vancomycin-resistant Enterococcus faecalis isolate 1004 after 24 hrs; type: functional; conditions: isolate 1004, 24 h
Enterococcus faecalis [14] = assay: Antibacterial activity against vancomycin-resistant Enterococcus faecalis isolate 1001 after 24 hrs; type: functional; conditions: isolate 1001, 24 h
Staphylococcus aureus [15] = assay: Antibacterial activity against methicillin-resistant Staphylococcus aureus ATCC 33591 after 24 hrs; type: functional; conditions: ATCC 33591, 24 h
[16] = test system: Staphylococcus saprophyticus; assay: Antibacterial activity against Staphylococcus saprophyticus ATCC BAA 750 after 24 hrs; type: functional; conditions: ATCC BAA 750, 24 h
[17] = test system: Staphylococcus saprophyticus; assay: Antibacterial activity against Staphylococcus saprophyticus ATCC 15305 after 24 hrs; type: functional; conditions: ATCC 15305, 24 h
Staphylococcus aureus [18] = assay: Antibacterial activity against Staphylococcus aureus ATCC 29213 after 24 hrs; type: functional; conditions: ATCC 29213, 24 h
Enterococcus faecalis [19] = assay: Antibacterial activity against vancomycin-resistant Enterococcus faecalis isolate 1008 after 24 hrs; type: functional; conditions: isolate 1008, 24 h

Measured: MIC

CC[C@@H](C)[C@@H](NC(=O)[C@@H](CCCNC(=N)N)NC(=O)[C@H](CO)NC(=O)[C@@H](NC(=O)[C@@H](Cc1ccccc1)NC)[C@@H](C)CC)C(=O)N[C@H](C(=O)N[C@@H](CO)C(=O)N[C@H]1C(=O)N[C@@H](CCCNC(=N)N)C(=O)N[C@@H](CC(C)C)C(=O)N[C@@H]([C@@H](C)CC)C(=O)O[C@H]1C)[C@@H](C)CC (H-[dNMeF]IS[dR][dI]IS[dT]RLI; ester 8-C)
0.5 µg/mL: Staphylococcus aureus [5] | Staphylococcus aureus [10]
< 0.0625 µg/mL: [1] | [4] | [7] | [12] | [16] | [17]
1 µg/mL: all other assays above

CC[C@@H](C)[C@@H](NC(=O)[C@@H](CCC(N)=O)NC(=O)[C@H](CCCNC(=N)N)NC(=O)[C@@H](NC(=O)[C@@H](Cc1ccccc1)NC)[C@@H](C)CC)C(=O)N[C@H](C(=O)N[C@@H](CO)C(=O)N[C@H]1C(=O)N[C@@H](CCCNC(=N)N)C(=O)N[C@@H](CC(C)C)C(=O)N[C@@H]([C@@H](C)CC)C(=O)O[C@H]1C)[C@@H](C)CC (H-[dNMeF]IR[dQ][dI]IS[dT]RLI; ester 8-C)
< 0.0625 µg/mL: [1] | [4] | [7] | [12] | [16] | [17]
2 µg/mL: Staphylococcus aureus [10]
0.5 µg/mL: Staphylococcus aureus [5] | Enterococcus faecalis [13] | Enterococcus faecalis [14] | Enterococcus faecalis [19]
0.25 µg/mL: Staphylococcus aureus [3]
1 µg/mL: all other assays above

CC[C@@H](C)[C@@H](NC(=O)[C@@H](CCC(N)=O)NC(=O)[C@H](CCCNC(=N)N)NC(=O)[C@@H](NC(=O)[C@@H](Cc1ccccc1)NC)[C@@H](C)CC)C(=O)N[C@H](C(=O)N[C@@H](CO)C(=O)N[C@H]1C(=O)N[C@@H](C)C(=O)N[C@@H]([C@@H](C)CC)C(=O)N[C@@H]([C@@H](C)CC)C(=O)O[C@H]1C)[C@@H](C)CC
0.5 µg/mL: Staphylococcus aureus [18]
0.125 µg/mL: Staphylococcus aureus [3] | Staphylococcus aureus [5] | Bacillus cereus | Staphylococcus aureus [10]
0.25 µg/mL: Staphylococcus aureus [8] | Staphylococcus aureus [15]
< 0.0625 µg/mL: [1] | [4] | [7] | [12] | [16] | [17]
1 µg/mL: all other assays above

Source: ChEMBL document CHEMBL4020828, “Design and Syntheses of Highly Potent Teixobactin Analogues against Staphylococcus aureus, Methicillin-Resistant Staphylococcus aureus (MRSA), and Vancomycin-Resistant Enterococci (VRE) in Vitro and in Vivo” (J Med Chem, 2018)
